Measurements as given in patent EP1640359A2, “Anticonvulsant and central nervous system-active bis(fluorophenyl)alkylamides” (NPS PHARMACEUTICALS, INC., priority 1997, dated 1999).

Tested on: normal anesthetized rats
Test: Flexor reflex in normal anesthetized rats (spasticity model)
Type: in vivo
Conditions: in comparison to baclofen, Figure 3 legend only, no numbers given
Description: Baclofen, diazepam (Valium), and tizanidine are effective on different parameters of spasticity (EMG recordings, H-reflex, the H/M ratio, mono- and polysynaptic reflexes, clonus, hyperreflexia) in these models. The flexor reflex is a polysynaptic response elicited by stimulation of the bottom of the foot and models the withdrawal reflex.

## NC(=O)CC(c1cccc(F)c1)c1cccc(F)c1 [Compound 1, 3,3-bis(3-fluorophenyl)propanamide]
  reduction in the flexor reflex: reduction in the flexor reflex
